A word on the inhibition: it is the drop in the measured response relative to a control, in per cent.

SMILES strings stand for the structures.

The assay deals with T1, B1R receptor of the rat (rB1R) (Rattus norvegicus, UniProt P97583).
T1 construct: expressed in transfected cells; host or cells: CHO K1 cells
T1 sequence (P97583 1-337): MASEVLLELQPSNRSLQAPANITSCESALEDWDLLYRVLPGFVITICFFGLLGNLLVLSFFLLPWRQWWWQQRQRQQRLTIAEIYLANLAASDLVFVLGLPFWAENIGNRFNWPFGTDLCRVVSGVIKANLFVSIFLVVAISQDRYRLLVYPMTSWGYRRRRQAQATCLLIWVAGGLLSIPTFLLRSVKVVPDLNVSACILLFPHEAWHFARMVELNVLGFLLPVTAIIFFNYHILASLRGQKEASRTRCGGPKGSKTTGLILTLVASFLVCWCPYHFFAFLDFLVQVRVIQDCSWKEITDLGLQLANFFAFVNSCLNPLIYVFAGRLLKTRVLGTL
Nature of the assay: Functional investigation on the bradykinin 1 receptor (B1R), FLIPR Ca2+ assay, rB1R cells. The format is cell-based. The note with it: CHO-K1, 10 μM test substance; CHO K1 cells with rat B1R; agonist Des-Arg9 bradykinin; % of maximum achievable inhibition; read-out: B1R antagonism, rat [10 μM] % inhibition. Put shortly: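 Ca2+ influx is measured as peak Fluo-4 fluorescence in a FLIPR protocol with two substance additions, following Lys-Des-[MUT] bradykinin (0.5 nM) or Des-[MUT] bradykinin (100 nM) challenge. Varying antagonist concentrations give % inhibition relative to maximum achievable and an IC50. Determinations in duplicate or triplicate, repeated independently (N>=2).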
On to `COc1cc(C)c(S(=O)(=O)Nc2ccc3ccn(CCC(=O)N(C)CCN4CCC(c5cccc(F)c5)(N5CCN(C)CC5)CC4)c3c2)c(C)c1` [G_CC-81, N-[2-[4-(3-Fluorophenyl)-4-(4-methyl-piperazin-1-yl)-piperidin-1-yl]-ethyl]-3-[6-[[(4-methoxy-2,6-dimethyl-phenyl)sulfonyl]amino]-1H-indol-1-yl]-N-methyl-propionamide], for which the inhibition at 10 µM was 103%. For `COc1cc(C)c(S(=O)(=O)Nc2cccc3ccn(CCC(=O)N4CCC(CCN5CCCC5)CC4)c23)c(C)c1` [G_CC-41, 4-Methoxy-2,6-dimethyl-N-[1-[3-oxo-3-[4-(2-pyrrolidin-1-yl-ethyl)-piperidin-1-yl]-propyl]-1H-indol-7-yl]-benzenesulfonic acid amide] the value was 76%; for `O=C(Cn1ccc2ccc(N3Cc4cccc(Cl)c4C3=O)cc21)NCC1CCN(c2ccncc2)CC1` [G_CC-111, 2-[6-(4-Chloro-3-oxo-1,2-dihydro-isoindol-2-yl)-1H-indol-1-yl]-N-[(1-pyridin-4-yl-piperidin-4-yl)-methyl]-acetamide], 81%; for `Cc1cc(S(=O)(=O)Nc2cccc3ccn(CC(=O)N4CCC5(CC4)CCN(c4ccncc4)CC5)c23)c(C)cc1Cl` [G_CC-39, 4-Chloro-2,5-dimethyl-N-[1-[2-oxo-2-(3-pyridin-4-yl-3,9-diazaspiro[5.5]undecan-9-yl)-ethyl]-1H-indol-7-yl]-benzenesulfonic acid amide], 95%. Under `COc1cc(C)c(S(=O)(=O)Nc2ccc3ccn(CC(=O)N(C)CCN4CCC(c5cccc(F)c5)(N5CCN(C)CC5)CC4)c3c2)c(C)c1` [G_CC-99, N-[2-[4-(3-Fluorophenyl)-4-(4-methyl-piperazin-1-yl)-piperidin-1-yl]-ethyl]-2-[6-[[(4-methoxy-2,6-dimethyl-phenyl)sulfonyl]amino]-1H-indol-1-yl]-N-methyl-acetamide] stands 93%; under `COc1cc(C)c(S(=O)(=O)Nc2cccc3ccn(CCC(=O)N4CCC(O)(c5ccccn5)CC4)c23)c(C)c1` [G_CC-45, N-[1-[3-(4-Hydroxy-4-pyridin-2-yl-piperidin-1-yl)-3-oxo-propyl]-1H-indol-7-yl]-4-methoxy-2,6-dimethyl-benzenesulfonic acid amide], 59%; under `Cc1cc(S(=O)(=O)Nc2cccc3ccn(CC(=O)N(C)CCCN4CCC(c5cccs5)(N(C)C)CC4)c23)c(C)cc1Cl` [G_CC-26, 2-[7-[[(4-Chloro-2,5-dimethyl-phenyl)sulfonyl]amino]-1H-indol-1-yl]-N-[3-(4-dimethylamino-4-thiophen-2-yl-piperidin-1-yl)-propyl]-N-methyl-acetamide], 81%. As for `Cc1cc(S(=O)(=O)Nc2cccc3ccn(CCC(=O)N4CCN(C5CCN(C)CC5)CC4)c23)c(C)cc1Cl` [G_CC-59, 4-Chloro-2,5-dimethyl-N-[1-[3-[4-(1-methyl-piperidin-4-yl)-piperazin-1-yl]-3-oxo-propyl]-1H-indol-7-yl]-benzenesulfonic acid amide], the inhibition at 10 µM came out at 87%.

Turning to `O=C(Cn1ccc2ccc(NS(=O)(=O)c3ccccc3C(F)(F)F)cc21)N1CCC2(CC1)CCN(c1ccncc1)CC2` [G_CC-37, N-[1-[2-Oxo-2-(3-pyridin-4-yl-3,9-diazaspiro[5.5]undecan-9-yl)-ethyl]-1H-indol-6-yl]-2-(trifluoromethyl)-benzenesulfonic acid amide], the inhibition at 10 µM was 91%. For the compound `COc1cc(C)c(S(=O)(=O)Nc2cccc3ccn(CCC(=O)N4CCN(CCCN(C)C)CC4)c23)c(C)c1` [G_CC-44, N-[1-[3-[4-(3-Dimethylamino-propyl)-piperazin-1-yl]-3-oxo-propyl]-1H-indol-7-yl]-4-methoxy-2,6-dimethyl-benzenesulfonic acid amide], the inhibition at 10 µM turned out to be 73%. `COc1cc(C)c(S(=O)(=O)Nc2cccc3ccn(CC(=O)N4CCC(Oc5ccncc5)CC4)c23)c(C)c1` [G_CC-92, 4-Methoxy-2,6-dimethyl-N-[1-[2-oxo-2-(4-pyridin-4-yloxy-piperidin-1-yl)-ethyl]-1H-indol-7-yl]-benzenesulfonic acid amide]: the inhibition at 10 µM came to 98%. For `CN1CCN(C2(c3cccc(F)c3)CCN(C(=O)Cn3ccc4ccc(N5Cc6cccc(Cl)c6C5=O)cc43)CC2)CC1` [G_CC-128, 7-Chloro-2-[1-[2-[4-(3-fluorophenyl)-4-(4-methyl-piperazin-1-yl)-piperidin-1-yl]-2-oxo-ethyl]-1H-indol-6-yl]-2,3-dihydro-isoindol-1-one] the value was 61%; for `COc1cc(C)c(S(=O)(=O)Nc2ccc3ccn(CC(=O)N4CCC(CNC(=O)c5ccncc5)(N5CCN(C)CC5)CC4)c3c2)c(C)c1` [G_CC-108, N-[[1-[2-[6-[[(4-Methoxy-2,6-dimethyl-phenyl)sulfonyl]amino]-1H-indol-1-yl]-acetyl]-4-(4-methyl-piperazin-1-yl)-piperidin-4-yl]-methyl]-pyridine-4-carboxylic acid amide], 84%.

In the case of `COc1cc(C)c(S(=O)(=O)Nc2ccc3ccn(CC(=O)NCC4CCN(c5ccncc5)CC4)c3c2)c(C)c1` [G_CC-9, 2-[6-[[(4-Methoxy-2,6-dimethyl-phenyl)sulfonyl]amino]-1H-indol-1-yl]-N-[(1-pyridin-4-yl-piperidin-4-yl)-methyl]-acetamide], the inhibition at 10 µM was 65%. Regarding `COc1cc(C)c(S(=O)(=O)Nc2ccc3ccn(CCC(=O)N(C)CCC4CCC(c5ccccc5)(N(C)C)CC4)c3c2)c(C)c1` (stereo not drawn) [G_CC-117, N-[2-(4-Dimethylamino-4-phenyl-cyclohexyl)-ethyl]-3-[6-[[(4-methoxy-2,6-dimethyl-phenyl)sulfonyl]amino]-1H-indol-1-yl]-N-methyl-propionamide], the inhibition at 10 µM turned out to be 74%. For `Cc1cc(S(=O)(=O)Nc2ccc3ccn(CC(=O)N(C)CCCN4CCC(c5ccccc5)(N(C)C)CC4)c3c2)c(C)cc1Cl` [G_CC-15, 2-[6-[[(4-Chloro-2,5-dimethyl-phenyl)sulfonyl]amino]-1H-indol-1-yl]-N-[3-(4-dimethylamino-4-phenyl-piperidin-1-yl)-propyl]-N-methyl-acetamide], the inhibition at 10 µM was determined as 65%. Under `COc1cc(C)c(S(=O)(=O)Nc2cccc3ccn(CC(=O)N(C)CCCN4CCC(c5cccs5)(N(C)C)CC4)c23)c(C)c1` [G_CC-18, N-[3-(4-Dimethylamino-4-thiophen-2-yl-piperidin-1-yl)-propyl]-2-[7-[[(4-methoxy-2,6-dimethyl-phenyl)sulfonyl]amino]-1H-indol-1-yl]-N-methyl-acetamide] stands 87%; under `Cc1cc(S(=O)(=O)Nc2ccc3ccn(CC(=O)NCCC4CCN(c5ccncc5)CC4)c3c2)c(C)cc1Cl` [G_CC-24, 2-[6-[[(4-Chloro-2,5-dimethyl-phenyl)sulfonyl]amino]-1H-indol-1-yl]-N-[2-(1-pyridin-4-yl-piperidin-4-yl)-ethyl]-acetamide], 89%; under `CN(CCC1CCC(c2ccccc2)(N(C)C)CC1)C(=O)CCn1ccc2ccc(N3Cc4cccc(Cl)c4C3=O)cc21` (stereo not drawn) [G_CC-127, 3-[6-(4-Chloro-3-oxo-1,2-dihydro-isoindol-2-yl)-1H-indol-1-yl]-N-[2-(4-dimethylamino-4-phenyl-cyclohexyl)-ethyl]-N-methyl-propionamide], 63%. For `Cc1cc(S(=O)(=O)Nc2cccc3ccn(CC(=O)NCCC4CCN(c5ccncc5)CC4)c23)c(C)cc1Cl` [G_CC-28, 2-[7-[[(4-Chloro-2,5-dimethyl-phenyl)sulfonyl]amino]-1H-indol-1-yl]-N-[2-(1-pyridin-4-yl-piperidin-4-yl)-ethyl]-acetamide] the value was 82%; for `COc1cc(C)c(S(=O)(=O)Nc2ccc3ccn(CC(=O)N4CCC5(CCN(Cc6ccccc6)C5)C4)c3c2)c(C)c1` (stereo not drawn) [G_CC-10, N-[1-[2-(3-Benzyl-3,7-diazaspiro[4.4]nonan-7-yl)-2-oxo-ethyl]-1H-indol-6-yl]-4-methoxy-2,6-dimethyl-benzenesulfonic acid amide], 69%; for `O=C(CCn1ccc2cccc(N3Cc4cccc(Cl)c4C3=O)c21)NCC1CCN(c2ccncc2)CC1` [G_CC-123, 3-[7-(4-Chloro-3-oxo-1,2-dihydro-isoindol-2-yl)-1H-indol-1-yl]-N-[(1-pyridin-4-yl-piperidin-4-yl)-methyl]-propionamide], 67%. As to `Cc1cc(S(=O)(=O)Nc2cccc3ccn(CCC(=O)NCCC4CCN(c5ccncc5)CC4)c23)c(C)cc1Cl` [G_CC-70, 3-[7-[[(4-Chloro-2,5-dimethyl-phenyl)sulfonyl]amino]-1H-indol-1-yl]-N-[2-(1-pyridin-4-yl-piperidin-4-yl)-ethyl]-propionamide], the inhibition at 10 µM was 100%.

With `O=C(CCn1ccc2ccc(N3Cc4cccc(Cl)c4C3=O)cc21)N1CCC(Oc2ccncc2)CC1` [G_CC-68, 7-Chloro-2-[1-[3-oxo-3-(4-pyridin-4-yloxy-piperidin-1-yl)-propyl]-1H-indol-6-yl]-2,3-dihydro-isoindol-1-one], the inhibition at 10 µM was found to be 69%.

The record behind these values is patent US8492559B2, “Substituted indole compounds” (Gruenenthal GmbH, priority 2009, dated 2013).
